One substance from patent US9168286B2, “Methods and compositions for use in treatment of patients with autoantibody positive disease” (Human Genome Sciences, Inc., priority 2005, dated 2015) can be followed below.

This experiment has as its system subjects with RA. Briefly: Phase 2 clinical trial of belimumab in rheumatoid arthritis: ACR20 response. Type of experiment: in vivo, human. The source says: ACR20 response increased to approximately 40% at Week 48.

On to “belimumab: an antibody that neutralizes Neutrokine-alpha protein”, for which the ACR20 response entry (1 mg/kg treatment group vs placebo, 24 weeks, p=0.0097) is on record as “statistically superior”; the ACR20 response result (Week 48 (extension period)) was “approximately 40%”; the ACR20 response entry (all active treatment groups combined vs placebo, 24 weeks, p=0.0213) is reported as “statistically superior”. Also, the “dose-response relationship for efficacy, safety, biomarker effects” value (1, 4, 10 mg/kg) is listed as “not apparent”. For the setting “patients with DAS28 >5.1, no previous anti-TNF therapy, and/or rheumatoid factor, IV days 0, 14, 28 then every four weeks until week 24”, the “symptoms associated with rheumatoid arthritis, by subgroup” value is “more likely to ameliorate symptoms associated with rheumatoid arthritis”. Further, the “ACR20 responses in subgroups” value (subjects with autoantibody positive disease (RF or anti-CCP) or positive for CRP at baseline) is “improved ACR20 responses”.
